Source: patent publication US6737383B1, “Herbicidal oxadiazolidines” (priority 1999, dated 2004)

How the values were obtained:
giant foxtail = test: Test B pre/postemergence giant foxtail; assay type: in vivo, Setaria faberii
Outline: (§1)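 Test chemicals in a non-phytotoxic solvent mixture with surfactant were sprayed preemergence onto planted seeds and postemergence onto plants 2 to 18 cm tall (1- to 4-leaf stage). After twelve to sixteen days in a greenhouse, injury was visually rated against untreated controls from 0 (no effect) to 10 (complete control).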

cocklebur = test: Test B pre/postemergence cocklebur; assay type: in vivo, Xanthium strumarium
Outline: as §1

duck salad = test: Test B flood test duck salad; assay type: in vivo, Heteranthera limosa
Outline: (§2)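 Plants were grown to the 2-leaf stage before treatment with test chemical, then held in a greenhouse for twelve to sixteen days. Injury was visually rated against untreated controls on a 0–10 scale, where 0 is no effect and 10 is complete control.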

rice = test: Test B flood test rice; assay type: in vivo, Oryza sativa
Outline: as §2

bedstraw = test: Test B pre/postemergence bedstraw; assay type: in vivo, Galium aparine; conditions: Preemergence; for Plant response rating, Bedstraw: scale of 0 to 10 where 0 is no effect and 10 is complete control; for Bedstraw plant response rating: scale 0 to 10, 0 is no effect, 10 is complete control
Outline: as §1

crabgrass = test: Test B pre/postemergence crabgrass; assay type: in vivo, Digitaria sanguinalis
Outline: as §1

wheat = test: Test B pre/postemergence wheat; assay type: in vivo, Triticum aestivum; conditions: for Plant response rating, Wheat: scale of 0 to 10 where 0 is no effect and 10 is complete control
Outline: as §1

surinam grass = test: Test B pre/postemergence surinam grass; assay type: in vivo, Brachiaria decumbens
Outline: as §1

blackgrass = test: Test B pre/postemergence blackgrass; assay type: in vivo, Alopecurus myosuroides
Outline: as §1

soybean = test: Test B pre/postemergence soybean; assay type: in vivo, Glycine max
Outline: as §1

pigweed = test: Test B pre/postemergence pigweed; assay type: in vivo, Amaranthus retroflexus; conditions: for Plant response rating, Redroot pigweed: scale of 0 to 10 where 0 is no effect and 10 is complete control
Outline: as §1

velvetleaf = test: Test B pre/postemergence velvetleaf; assay type: in vivo, Abutilon theophrasti; conditions: for Plant response rating, Velvetleaf: scale of 0 to 10 where 0 is no effect and 10 is complete control
Outline: as §1

sugar beet = test: Test B pre/postemergence sugar beet; assay type: in vivo, Beta vulgaris; conditions: for Plant response rating, Sugarbeets: scale of 0 to 10 where 0 is no effect and 10 is complete control
Outline: as §1

corn = test: Test B pre/postemergence corn; assay type: in vivo, Zea mays
Outline: as §1

purple nutsedge = test: Test B pre/postemergence purple nutsedge; assay type: in vivo, Cyperus rotundus
Outline: as §1

wild oat = test: Test B pre/postemergence wild oat; assay type: in vivo, Avena fatua; conditions: for Plant response rating, Wild oats: scale of 0 to 10 where 0 is no effect and 10 is complete control
Outline: as §1

[1] = Postemergence, Rate 250 g/ha, scale 0 to 10
[2] = Postemergence, Rate 500 g/ha, scale of 0 to 10 where 0 is no effect and 10 is complete control
[3] = Preemergence, Rate 62 g/ha, scale of 0 to 10 where 0 is no effect and 10 is complete control
[4] = Preemergence, Rate 125 g/ha, scale of 0 to 10 where 0 is no effect and 10 is complete control
[5] = Preemergence, Rate 250 g/ha, scale 0 to 10, 0 is no effect, 10 is complete control
[6] = Preemergence, Rate 500 g/ha, scale 0 to 10, 0 is no effect, 10 is complete control
[7] = Rate 62 g/ha, Postemergence, scale 0 to 10, 0 no effect, 10 complete control
[8] = Rate 125 g/ha, Postemergence, scale 0 to 10, 0 is no effect, 10 is complete control
[9] = Rate 62 g/ha, flood test species, Pre-emergence, visual evaluation after twelve to sixteen days
[10] = Rate 125 g/ha, under heading Pre-emergence, flood test species, visual evaluation after twelve to sixteen days
[11] = Rate 250 g/ha, Pre-emergence (flood test species), scale 0 to 10, 0 is no effect, 10 is complete control
[12] = Rate 500 g/ha, Pre-emergence, flood test species, scale 0 to 10 (0 no effect, 10 complete control)

CC(C)N(C(=O)n1oc(=O)n(COCC[Si](C)(C)C)c1=O)c1ccc(Cl)cc1 [Compound 467]
Giant foxtail plant response rating (giant foxtail; [1]): 2
Giant foxtail plant response rating (giant foxtail; [2]): 4
Plant response rating, Giant foxtail (giant foxtail; [3]): 0
Plant response rating, Giant foxtail (giant foxtail; [4]): 7
Giant foxtail plant response rating (giant foxtail; [5]): 9
Giant foxtail plant response rating (giant foxtail; [6]): 9
Giant foxtail plant response rating (giant foxtail; [7]): 0
Giant foxtail plant response rating (giant foxtail; [8]): 0
Cocklebur plant response rating (cocklebur; [1]): 0
Cocklebur plant response rating (cocklebur; [2]): 5
Plant response rating, Cocklebur (cocklebur; [3]): 2
Plant response rating, Cocklebur (cocklebur; [4]): 4
Cocklebur plant response rating (cocklebur; [5]): 6
Cocklebur plant response rating (cocklebur; [6]): 6
Cocklebur plant response rating (cocklebur; [7]): 0
Cocklebur plant response rating (cocklebur; [8]): 0
Plant response rating, Ducksalad (0 to 10 scale, 0 is no effect, 10 is complete control) (duck salad; [9]): 0
Ducksalad plant response rating (0 to 10 scale, 0 is no effect, 10 is complete control) (duck salad; [10]): 0
Ducksalad plant response rating (duck salad; [11]): 0
Ducksalad plant response rating (duck salad; [12]): 0
Plant response rating, Rice (0 to 10 scale, 0 is no effect, 10 is complete control) (rice; [9]): 0
Rice plant response rating (0 to 10 scale, 0 is no effect, 10 is complete control) (rice; [10]): 0
Rice plant response rating (rice; [11]): 0
Rice plant response rating (rice; [12]): 0
Plant response rating, Bedstraw (bedstraw; Rate 62 g/ha): 0
Plant response rating, Bedstraw (bedstraw; Rate 125 g/ha): 0
Bedstraw plant response rating (bedstraw; Rate 250 g/ha): 0
Bedstraw plant response rating (bedstraw; Rate 500 g/ha): 0
Crabgrass plant response rating (crabgrass; [1]): 0
Crabgrass plant response rating (crabgrass; [2]): 6
Plant response rating, Crabgrass (crabgrass; [3]): 5
Plant response rating, Crabgrass (crabgrass; [4]): 6
Crabgrass plant response rating (crabgrass; [5]): 6
Crabgrass plant response rating (crabgrass; [6]): 8
Crabgrass plant response rating (crabgrass; [7]): 0
Crabgrass plant response rating (crabgrass; [8]): 0
Wheat plant response rating (wheat; [1]): 0
Plant response rating, Wheat (wheat; Preemergence, Rate 62 g/ha): 0
Plant response rating, Wheat (wheat; Preemergence, Rate 125 g/ha): 0
Wheat plant response rating (wheat; [5]): 0
Wheat plant response rating (wheat; [6]): 0
Wheat plant response rating (wheat; [7]): 0
Wheat plant response rating (wheat; [8]): 0
B. signalgrass plant response rating (surinam grass; Postemergence, Rate 250 g/ha, scale 0 to 10, 0 no effect, 10 complete control): 0
B. signalgrass plant response rating (surinam grass; [2]): 0
Plant response rating, B. signalgrass (surinam grass; [3]): 0
Plant response rating, B. signalgrass (surinam grass; [4]): 0
B. signalgrass plant response rating (surinam grass; [5]): 0
B. signalgrass plant response rating (surinam grass; [6]): 2
B. signalgrass plant response rating (surinam grass; [7]): 0
B. signalgrass plant response rating (surinam grass; [8]): 0
Blackgrass plant response rating (blackgrass; [1]): 0
Blackgrass plant response rating (blackgrass; [2]): 7
Plant response rating, Blackgrass (blackgrass; [3]): 0
Plant response rating, Blackgrass (blackgrass; [4]): 2
Blackgrass plant response rating (blackgrass; [5]): 2
Blackgrass plant response rating (blackgrass; [6]): 2
Blackgrass plant response rating (blackgrass; [7]): 0
Blackgrass plant response rating (blackgrass; [8]): 0
Soybean plant response rating (soybean; [1]): 0
Plant response rating, Soybean (soybean; [4]): 0
Soybean plant response rating (soybean; [5]): 0
Soybean plant response rating (soybean; [6]): 0
Soybean plant response rating (soybean; [7]): 0
Soybean plant response rating (soybean; [8]): 0
Redroot pigweed plant response rating (pigweed; [1]): 3
Plant response rating, Redroot pigweed (pigweed; Preemergence, Rate 62 g/ha): 7
Plant response rating, Redroot pigweed (pigweed; Preemergence, Rate 125 g/ha): 7
Redroot pigweed plant response rating (pigweed; [5]): 7
Redroot pigweed plant response rating (pigweed; [6]): 9
Redroot pigweed plant response rating (pigweed; [8]): 0
Velvetleaf plant response rating (velvetleaf; [1]): 0
Plant response rating, Velvetleaf (velvetleaf; Preemergence, Rate 62 g/ha): 0
Plant response rating, Velvetleaf (velvetleaf; Preemergence, Rate 125 g/ha): 0
Velvetleaf plant response rating (velvetleaf; [5]): 0
Velvetleaf plant response rating (velvetleaf; [6]): 1
Velvetleaf plant response rating (velvetleaf; [7]): 0
Velvetleaf plant response rating (velvetleaf; [8]): 0
Sugarbeets plant response rating (sugar beet; [1]): 4
Plant response rating, Sugarbeets (sugar beet; Preemergence, Rate 62 g/ha): 1
Plant response rating, Sugarbeets (sugar beet; Preemergence, Rate 125 g/ha): 1
Sugarbeets plant response rating (sugar beet; [5]): 1
Sugarbeets plant response rating (sugar beet; [6]): 2
Sugarbeets plant response rating (sugar beet; [7]): 0
Sugarbeets plant response rating (sugar beet; [8]): 2
Corn plant response rating (corn; [1]): 0
Corn plant response rating (corn; [2]): 0
Plant response rating, Corn (corn; [3]): 0
Plant response rating, Corn (corn; [4]): 0
Corn plant response rating (corn; [5]): 0
Corn plant response rating (corn; [6]): 0
Corn plant response rating (corn; [7]): 0
Corn plant response rating (corn; [8]): 0
Nutsedge plant response rating (purple nutsedge; [1]): 0
Plant response rating, Nutsedge (purple nutsedge; [4]): 0
Nutsedge plant response rating (purple nutsedge; [5]): 0
Nutsedge plant response rating (purple nutsedge; [6]): 0
Nutsedge plant response rating (purple nutsedge; [7]): 0
Wild oats plant response rating (wild oat; [1]): 2
Plant response rating, Wild oats (wild oat; Preemergence, Rate 62 g/ha): 0
Plant response rating, Wild oats (wild oat; Preemergence, Rate 125 g/ha): 0
Wild oats plant response rating (wild oat; [5]): 0
Wild oats plant response rating (wild oat; [6]): 0
Wild oats plant response rating (wild oat; [7]): 0
Wild oats plant response rating (wild oat; [8]): 0
